Data set [1] has as its system Meloidogyne incognita. Kind of data set: Critical concentration test (soil treatment, lettuce root galls). Format: in vivo. Conditions: active compound concentration of 20 ppm in soil, greenhouse 25° C., evaluated after three weeks. The procedure: Critical Concentration Test [table] To produce a suitable preparation of active compound, 1 part by weight of active compound is mixed with the stated amount of solvent, the stated amount of emulsifier is added and the concentrate is diluted to the desired concentration. The preparation of active compound is intimately mixed with the soil which is contaminated with the test nematodes. The concentration of the active compound in the preparation is here virtually unimportant, only the amount of active compound per volume unit of soil, which is stated in ppm (=mg/l), is decisive. The treated soil is filled into pots, lettuce is sown in and the pots are kept at a greenhouse temperature of 25° C. After three weeks, the roots of the lettuces are examined for infestation by nematodes (root galls), and the efficacy of the active compound in % is determined. The efficacy is 100% when infestation is avoided completely and 0% when the infestation level is just as high as in the control plants in untreated, but equally infested, soil.

What is called melting point is the temperature of the solid-liquid transition.

As to `CC(=NC#N)NC(C)c1ccc(Cl)cc1` (centres unmarked) [Preparation Example 1, [R]-N-cyano-N′-(4-chlorophenyl-eth-1-yl)-ethaneimidamide], the melting point is 125 °C. The “kill (efficacy of the active compound in %)” value in data set [1] is on record as 100%.

Source of the values: patent US6638979B1, “Imidamide derivatives” (Bayer Aktiengesellschaft, priority 1998, dated 2003).
